From patent US12023320B2, “Therapeutic agent for fatty liver disease” (EA PHARMA CO., LTD., priority 2020, dated 2024)

Test system: high-fat and high-fructose-induced NASH model (FFD model)
Test: high-fat and high-fructose-induced NASH model (fast-food diet model: FFD model), 18 weeks gavage
Format: in vivo, C57BL/6J Jms Slc male mice
Details: for histopathological findings: Fat formation: large fat droplets, number of mice graded ± (Slight) / histopathological findings: Fat formation: large fat droplets, number of mice graded + (Moderate): 8 mice evaluated; for histopathological findings: Fat formation: large fat droplets, number of mice graded ± (Slight) / histopathological findings: Fibrosis, number of mice graded ± (Slight): Vehicle 3; for histopathological findings: Fat formation: large fat droplets, number of mice graded + (Moderate) / histopathological findings: Fibrosis, number of mice graded + (Moderate): Vehicle 5; for histopathological findings: Fibrosis, number of mice graded ± (Slight) / histopathological findings: Fibrosis, number of mice graded + (Moderate): individuals with liver nodules excluded; for number of CD68-positive hCLS in the liver (inhibitory effect on the increase vs Vehicle group): after 18 weeks of administration (FIG. 5); for liver TG (inhibitory effect on the increase vs Vehicle group): after 18 weeks of administration (FIG. 3)
Method: In the present Examples, using a high-fat and high-fructose-induced NASH model (fast-food diet model: FFD model), the effect of a test drug was evaluated. For the FFD model, refer to BMC Gastroenterol. 2020; 20: 210 and Am J Physiol Gastrointest Liver Physiol. 2013 Oct. 1; 305(7): G483-95. The test drug was prepared by adding hydrochloride of the compound represented by the formula (1) (hereinafter referred to as “compound 1”) to 0.5% MC and sonicating the mixture. 6-week-old C57BL/6J Jms Slc male mice were fed with standard diet (D09100304, Research Diets, Inc.) or FFD diet for pathogenesis (D09100310N, Research Diets, Inc.) for 20 weeks. Then, the mice were grouped as shown in Table 1 based on three indices, i.e., plasma alanine aminotransferase (ALT) levels, body weight, and fasting blood glucose levels. According to the dosage and usage shown in Table 1, the administration substance was gavaged to each group for 18 weeks. [table] ALT was measured by collecting blood from the tail vein after 12 weeks of administration. An autopsy was performed after 18 weeks of administration, and plasma aspartate aminotransferase (AST), plasma total cholesterol (Tcho), and liver triglyceride (TG) were measured. In addition, the Sirius red-positive area and the number of hepatic crown-like structures (hCLS) were measured by liver pathological analysis. Statistical analysis was performed using GraphPad Prism 6 (GraphPad Software, Inc.). For the Normal group and the Vehicle group, t-test or Mann-Whitney's test was performed. For the Vehicle group and the compound 1 group, Dunnett' multiple comparison test or Dunn's multiple comparison test was performed. Any of the test methods was appropriately selected according to the distribution of each parameter. The significance level of all the tests was set to p=0.05. A liver sample was homogenized in a phosphate buffer and extracted with methanol and chloroform overnight. Then, chloroform and distilled water were further added thereto. The mixture was separated by centrifugation, the chloroform layer was collected, and the solvent was dried. The precipitate was dissolved in isopropanol/TritonX-100, and this was used as a measurement sample, the measurement was carried out using Triglyceride E-Test Wako (FUJIFILM Wako Pure Chemical Corporation). The excised liver was fixed in a 10% neutral buffered formalin solution, and embedded in paraffin and Sirius red-stained specimens were prepared according to standard methods. The Sirius red-stained specimen was used to calculate the positive area. The positive area of the Normal group was averaged and used as the background. A CD68 immunostaining specimen (rabbit anti-CD68 polyclonal antibody [ab125212], Abcam) was prepared, and the number of hCLS was counted.

[1] = compound 1 (60) group, 60 mg/kg/day BID

## CC(C)(Cc1ccc(C(=O)Oc2ccc(C(=N)N)cc2F)s1)C(=O)O [compound 1]
10 mg/kg QD
  histopathological findings: Fat formation: large fat droplets, number of mice graded ± (Slight): 4
  histopathological findings: Fat formation: large fat droplets, number of mice graded + (Moderate): 4
  histopathological findings: Fibrosis, number of mice graded ± (Slight): 6
  histopathological findings: Fibrosis, number of mice graded + (Moderate): 2
30 mg/kg QD
  histopathological findings: Fat formation: large fat droplets, number of mice graded ± (Slight): 2
  histopathological findings: Fat formation: large fat droplets, number of mice graded + (Moderate): 6
  histopathological findings: Fibrosis, number of mice graded ± (Slight): 6
  histopathological findings: Fibrosis, number of mice graded + (Moderate): 1
60 mg/kg/day BID
  histopathological findings: Fat formation: large fat droplets, number of mice graded ± (Slight): 7
  histopathological findings: Fat formation: large fat droplets, number of mice graded + (Moderate): 1
  histopathological findings: Fibrosis, number of mice graded ± (Slight): 6
  histopathological findings: Fibrosis, number of mice graded + (Moderate): 2
Compound 1 (10) group, 10 mg/kg QD
  number of CD68-positive hCLS in the liver (inhibitory effect on the increase vs Vehicle group): statistically significant inhibitory effect
Compound 1 (30) group, 30 mg/kg QD
  liver TG (inhibitory effect on the increase vs Vehicle group): statistically significant inhibitory effect
Compound 1 (60) group, 60 mg/kg/day BID, after 12 weeks and 18 weeks of administration (FIG. 1A, 1B)
  plasma ALT (inhibitory effect on the increase vs Vehicle group): statistically significant inhibitory effect
Compound 1 (60) group, 60 mg/kg/day BID, after 18 weeks of administration (FIG. 1C)
  plasma AST (inhibitory effect on the increase vs Vehicle group): statistically significant inhibitory effect
Compound 1 (60) group, 60 mg/kg/day BID, after 18 weeks of administration (FIG. 2)
  plasma Tcho (inhibitory effect on the increase vs Vehicle group): statistically significant inhibitory effect
[1]
  liver TG (inhibitory effect on the increase vs Vehicle group): statistically significant inhibitory effect
  number of CD68-positive hCLS in the liver (inhibitory effect on the increase vs Vehicle group): statistically significant inhibitory effect
Compound 1 (60) group, 60 mg/kg/day BID, after 18 weeks of administration (FIG. 4)
  Sirius red-positive area in the liver (inhibitory effect on the increase vs Vehicle group): statistically significant inhibitory effect
